From ChEMBL document CHEMBL5346860, “Cancer multidrug-resistance reversal by ABCB1 inhibition: A recent update” (Eur J Med Chem, 2022)

How the values were obtained:
[1] = Reversal of vincristine resistance in human Flp-In-293 cells expressing ABCB1 assessed as fold change in vincristine IC50 in presence of caffeic acid for 30 mins by fluorescence based assay; assay type: functional; details: 0.5 h
[2] = Reversal of paclitaxel resistance in human Flp-In-293 cells expressing ABCB1 assessed as fold change in paclitaxel IC50 in presence of caffeic acid for 30 mins by fluorescence based assay; assay type: functional; details: 0.5 h
[3] = Reversal of […] in human Flp-In-293 cells expressing ABCB1 assessed as fold change in doxorubicin IC50 in presence of caffeic acid for 30 mins by fluorescence based assay; assay type: functional; details: 0.5 h
[4] = Reversal of vincristine resistance in human Flp-In-293 cells expressing ABCB1 assessed as cell growth inhibition in presence of caffeic acid for 30 mins by fluorescence based assay; assay type: functional; details: Flp-In-293, 0.5 h
[5] = Reversal of paclitaxel resistance in human Flp-In-293 cells expressing ABCB1 assessed as cell growth inhibition in presence of caffeic acid for 30 mins by fluorescence based assay; assay type: functional; details: Flp-In-293, 0.5 h
[6] = Reversal of doxorubicin resistance in human Flp-In-293 cells expressing ABCB1 assessed as cell growth inhibition in presence of caffeic acid for 30 mins by fluorescence based assay; assay type: functional; details: Flp-In-293, 0.5 h
[7] = target: T1, ATP-dependent translocase ABCB1 (Homo sapiens, UniProt P08183); assay: Inhibition of ABCB1 in multi-drug resistance human HL-60 cells assessed as increase in daunorubicin accumulation; assay type: cell-based
T1 sequence (P08183 whole entry): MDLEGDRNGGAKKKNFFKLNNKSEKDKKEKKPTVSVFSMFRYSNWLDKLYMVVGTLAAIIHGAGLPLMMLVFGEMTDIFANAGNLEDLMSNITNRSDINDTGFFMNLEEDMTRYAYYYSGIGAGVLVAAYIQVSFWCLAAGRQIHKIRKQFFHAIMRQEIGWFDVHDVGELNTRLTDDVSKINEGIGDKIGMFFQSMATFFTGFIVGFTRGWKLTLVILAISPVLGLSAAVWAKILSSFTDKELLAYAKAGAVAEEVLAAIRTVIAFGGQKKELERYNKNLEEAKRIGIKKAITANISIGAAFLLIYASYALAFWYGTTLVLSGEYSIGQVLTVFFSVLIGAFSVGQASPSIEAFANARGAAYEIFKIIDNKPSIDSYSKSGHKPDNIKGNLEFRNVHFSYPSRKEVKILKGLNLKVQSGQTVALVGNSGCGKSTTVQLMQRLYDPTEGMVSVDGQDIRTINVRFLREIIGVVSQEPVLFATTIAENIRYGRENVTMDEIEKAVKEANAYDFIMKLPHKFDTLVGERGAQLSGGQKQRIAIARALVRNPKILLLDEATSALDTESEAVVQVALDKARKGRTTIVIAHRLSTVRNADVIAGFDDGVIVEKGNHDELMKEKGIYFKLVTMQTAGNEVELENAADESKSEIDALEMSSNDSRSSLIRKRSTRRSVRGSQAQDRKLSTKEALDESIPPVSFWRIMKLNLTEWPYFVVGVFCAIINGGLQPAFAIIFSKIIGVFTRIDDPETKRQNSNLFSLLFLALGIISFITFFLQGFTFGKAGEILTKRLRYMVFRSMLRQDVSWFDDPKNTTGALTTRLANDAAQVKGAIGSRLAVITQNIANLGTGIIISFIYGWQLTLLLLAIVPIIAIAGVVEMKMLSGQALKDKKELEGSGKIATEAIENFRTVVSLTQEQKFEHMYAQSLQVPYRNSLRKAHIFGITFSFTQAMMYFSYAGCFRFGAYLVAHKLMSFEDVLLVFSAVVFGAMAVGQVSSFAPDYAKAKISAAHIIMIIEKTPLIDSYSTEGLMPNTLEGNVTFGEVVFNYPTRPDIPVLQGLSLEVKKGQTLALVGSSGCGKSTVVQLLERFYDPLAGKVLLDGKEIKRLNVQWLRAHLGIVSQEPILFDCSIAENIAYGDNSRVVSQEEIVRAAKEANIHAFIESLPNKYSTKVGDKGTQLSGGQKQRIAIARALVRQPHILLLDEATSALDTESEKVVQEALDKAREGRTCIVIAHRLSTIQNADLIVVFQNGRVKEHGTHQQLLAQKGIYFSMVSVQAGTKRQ

L5178Y = assay: Cytotoxicity against multidrug-resistant mouse L5178Y cells expressing ABCB1 assessed as cell growth inhibition incubated for 24 hrs by MTT assay; assay type: functional, cell-based
KB-V1 = assay: cells; details: Homo sapiens, KB-V1, 72 h
Description: Cytotoxicity against human KB-V1 cells assessed as cell growth inhibition incubated for 72 hrs by MTS assay

KB 3-1 = assay: cells; details: Homo sapiens, KB 3-1, 72 h
Description: Cytotoxicity against human KB 3-1 cells assessed as cell growth inhibition incubated for 72 hrs by MTS assay

[8] = target: T1, ATP-dependent translocase ABCB1; assay: Inhibition of P-gp1 efflux in human Flp-In-293 cells using rhodamine as substrate assessed as increase in intracellular accumulation of rhodamine 123 preincubated for 30 mins followed by substrate addition and measured for 10 mins by fluorescence based assay; assay type: cell-based
[9] = target: T1, ATP-dependent translocase ABCB1; assay: Inhibition of P-gp1 efflux in human Flp-In-293 cells using calcein-AM as substrate assessed as increase in intracellular accumulation of calcein-AM preincubated for 30 mins followed by substrate addition and measured for 30 mins by fluorescence based assay; assay type: cell-based
ADR5000 cell line = assay: Antitumor activity against human CEM/ADR5000 cells assessed as fold increase in doxorubicin accumulation; assay type: functional
HL-60 = assay: Antiproliferative activity against human HL-60 cells assessed as inhibition of cell survival by MTT assay; assay type: functional; details: read-out: LC50 (the source's name)
U-937 = assay: Antiproliferative activity against human U-937 cells assessed as inhibition of cell survival by MTT assay; assay type: functional; details: read-out: LC50 (the source's name)
[10] = Antiproliferative activity against human HaCaT cells assessed as inhibition of cell survival by MTT assay; assay type: toxicity, cell-based; details: read-out: LC50 (the source's name)
[11] = Antiproliferative activity against human BJ cells assessed as inhibition of cell survival by MTT assay; assay type: toxicity, cell-based; details: read-out: LC50 (the source's name)
SH-SY5Y = assay: Antiproliferative activity against human SH-SY5Y cells assessed as inhibition of cell survival by MTT assay; assay type: functional; details: read-out: LC50 (the source's name)
HEK293 = assay: Antiproliferative activity against human HEK293 cells assessed as inhibition of cell survival by MTT assay; assay type: functional; details: read-out: LC50 (the source's name)
P388/ADR [12] = assay: Reversal of ABCB1 mediated doxorubicin-resistance in mouse P388/ADR cells assessed as cell growth inhibition incubated for 48 hrs by MTT assay; assay type: functional, cell-based
P388/ADR [13] = assay: Potency index, ratio of verapamil IC50 to compound IC50 for reversal of ABCB1 mediated doxorubicin-resistance in mouse P388/ADR cells assessed as cell growth inhibition incubated for 48 hrs by MTT assay; assay type: functional
[14] = target: Multidrug resistance-associated protein 1 (Homo sapiens, UniProt P33527); assay: Inhibition of MRP1 efflux pump in human MCF7 cells assessed as fold increase in vinblastine cellular accumulation; assay type: cell-based
Chain of Multidrug resistance-associated protein 1 (P33527 whole entry): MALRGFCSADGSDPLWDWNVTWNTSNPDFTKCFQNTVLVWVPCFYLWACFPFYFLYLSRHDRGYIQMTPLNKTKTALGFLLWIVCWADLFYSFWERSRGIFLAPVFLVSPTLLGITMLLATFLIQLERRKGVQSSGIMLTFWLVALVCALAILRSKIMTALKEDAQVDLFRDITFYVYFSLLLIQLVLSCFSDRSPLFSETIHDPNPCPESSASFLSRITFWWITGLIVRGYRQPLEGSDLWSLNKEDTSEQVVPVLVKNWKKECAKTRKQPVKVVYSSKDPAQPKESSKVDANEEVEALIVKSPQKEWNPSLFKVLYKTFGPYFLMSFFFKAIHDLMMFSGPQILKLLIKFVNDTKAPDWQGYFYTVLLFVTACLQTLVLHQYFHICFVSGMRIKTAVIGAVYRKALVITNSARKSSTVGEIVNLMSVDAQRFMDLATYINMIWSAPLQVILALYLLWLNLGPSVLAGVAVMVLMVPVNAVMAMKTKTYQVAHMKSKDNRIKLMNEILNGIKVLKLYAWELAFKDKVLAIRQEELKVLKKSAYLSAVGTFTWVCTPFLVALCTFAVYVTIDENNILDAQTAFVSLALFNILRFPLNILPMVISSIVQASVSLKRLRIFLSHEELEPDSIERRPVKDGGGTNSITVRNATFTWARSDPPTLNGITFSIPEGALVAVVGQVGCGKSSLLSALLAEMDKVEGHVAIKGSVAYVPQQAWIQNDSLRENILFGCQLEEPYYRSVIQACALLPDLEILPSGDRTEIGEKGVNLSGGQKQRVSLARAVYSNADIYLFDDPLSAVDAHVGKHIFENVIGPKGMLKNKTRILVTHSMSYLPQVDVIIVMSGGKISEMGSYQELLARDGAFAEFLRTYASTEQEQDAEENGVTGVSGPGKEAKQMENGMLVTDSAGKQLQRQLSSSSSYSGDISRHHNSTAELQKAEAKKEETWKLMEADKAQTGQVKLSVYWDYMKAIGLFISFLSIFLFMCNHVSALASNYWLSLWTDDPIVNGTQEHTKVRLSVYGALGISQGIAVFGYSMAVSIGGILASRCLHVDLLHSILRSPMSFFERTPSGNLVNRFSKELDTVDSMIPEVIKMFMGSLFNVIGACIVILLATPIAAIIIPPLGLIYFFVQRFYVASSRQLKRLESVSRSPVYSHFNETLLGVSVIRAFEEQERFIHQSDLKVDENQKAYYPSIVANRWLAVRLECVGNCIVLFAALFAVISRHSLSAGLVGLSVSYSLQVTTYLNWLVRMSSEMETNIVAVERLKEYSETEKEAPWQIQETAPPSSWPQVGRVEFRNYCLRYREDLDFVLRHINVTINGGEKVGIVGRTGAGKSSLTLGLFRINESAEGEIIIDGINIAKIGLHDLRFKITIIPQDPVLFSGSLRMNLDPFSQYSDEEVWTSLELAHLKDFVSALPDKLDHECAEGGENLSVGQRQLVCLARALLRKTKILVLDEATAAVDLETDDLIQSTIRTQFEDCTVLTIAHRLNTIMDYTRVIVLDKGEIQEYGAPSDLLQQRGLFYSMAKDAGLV

[15] = target: T1, ATP-dependent translocase ABCB1; assay: Inhibition of P-gp efflux pump in human MCF7 cells assessed as fold increase in vinblastine cellular accumulation; assay type: cell-based
[16] = target: T2, Broad substrate specificity ATP-binding cassette transporter ABCG2 (Homo sapiens, UniProt Q9UNQ0); assay: Inhibition of BCRP efflux pump in human MCF7 cells assessed as fold increase in vinblastine cellular accumulation; assay type: cell-based
T2 sequence (Q9UNQ0 whole entry): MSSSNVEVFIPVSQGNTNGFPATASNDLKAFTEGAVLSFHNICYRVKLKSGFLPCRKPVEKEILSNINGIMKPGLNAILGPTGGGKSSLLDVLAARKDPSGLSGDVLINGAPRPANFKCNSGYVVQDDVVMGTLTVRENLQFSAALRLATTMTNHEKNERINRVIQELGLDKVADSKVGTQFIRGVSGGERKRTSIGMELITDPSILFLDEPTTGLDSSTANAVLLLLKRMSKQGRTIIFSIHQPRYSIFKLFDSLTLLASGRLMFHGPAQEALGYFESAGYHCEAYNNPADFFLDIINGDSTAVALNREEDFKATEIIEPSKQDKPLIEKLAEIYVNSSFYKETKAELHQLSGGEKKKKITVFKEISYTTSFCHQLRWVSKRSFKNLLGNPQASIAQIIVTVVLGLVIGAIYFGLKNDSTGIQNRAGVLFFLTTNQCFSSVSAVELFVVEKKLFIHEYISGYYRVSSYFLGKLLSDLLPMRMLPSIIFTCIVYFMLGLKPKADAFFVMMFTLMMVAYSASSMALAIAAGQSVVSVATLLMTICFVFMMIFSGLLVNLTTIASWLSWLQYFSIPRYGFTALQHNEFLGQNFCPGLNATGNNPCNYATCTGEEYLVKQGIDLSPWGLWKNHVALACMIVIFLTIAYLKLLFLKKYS

4T1 = assay: Antitumor activity against mouse 4T1 cells implanted in Balb/c mouse assessed as tumor growth inhibition at 4 mg/kg administered once for every two days measured after 15 days by immunohistochemical analysis relative to control; assay type: functional; details: 4T1, 360 h, time 15 day
[17] = target: T1, ATP-dependent translocase ABCB1; assay: Inhibition of ABCB1 efflux pump in human LS180 cells using Rh123 as substrate incubated for 90 mins by fluorescence based assay; assay type: cell-based
A549/TR [18] = assay: Antiproliferative activity against human A549/Taxol cells overexpressing ABCB1 assessed as cell growth inhibition by MTT assay; assay type: functional, cell-based
A2780/Taxol [19] = assay: Antiproliferative activity against human A2780/Taxol cells overexpressing ABCB1 assessed as cell growth inhibition by MTT assay; assay type: functional, cell-based
A2780/Taxol [20] = assay: Potentiation of paclitaxel induced antiproliferative activity against human A2780/Taxol cells overexpressing ABCB1 assessed as fold reduction in paclitaxel IC50 by MTT assay relative to control; assay type: functional
A549/TR [21] = assay: Potentiation of paclitaxel induced antiproliferative activity against human A549/Taxol cells overexpressing ABCB1 assessed as fold reduction in paclitaxel IC50 by MTT assay relative to control
[22] = Reversal of drug resistance in paclitaxel-resistant human TOV-21G cells assessed as fold change in paclitaxel IC50 in presence of paclitaxel; assay type: functional, paclitaxel-resistant human TOV-21G cell
[23] = Reversal of drug resistance in paclitaxel-resistant human OVCAR-3 cells assessed as fold decrease in paclitaxel IC50 in presence of paclitaxel; assay type: functional, paclitaxel-resistant human OVCAR-3 cell

In the case of `O=C(O)/C=C/c1ccc(O)c(O)c1` [CAFFEIC ACID], the “fold change (FC)” value [1] is reported as 3.9, the “fold change (FC)” value [2] is reported as 4.96 and the “fold change (FC)” value [3] is reported as 15.11. The IC50 [4] was 0.198 µM, the IC50 [5] was 0.125 µM and the IC50 [6] was 0.597 µM.

Work on `CO[C@@H]1[C@H](N(C)C(=O)c2ccccc2)C[C@H]2O[C@]1(C)n1c3ccccc3c3c4c(c5c6ccccc6n2c5c31)C(=O)NC4` [MIDOSTAURIN] yielded an IC50 [7] of 0.068 µM.

`C#CCn1c(-c2ccc(OC)cc2)nc2cc(Br)cnc21` gave an IC50 (L5178Y) of 0.2 µM.

For `COc1ccc(CCC2c3cc(OCc4ccccc4)c(OC)cc3CCN2C)cc1OCc1ccccc1` (racemic), the IC50 (KB-V1) was 15.1 µM and the IC50 (KB 3-1) was 11.5 µM.

For `COc1cc(/C=C/C(=O)CC(=O)/C=C/c2ccc(O)cc2)ccc1O`, the IC50 [8] was 1.56 µM and the IC50 [9] was 1.56 µM.

For `COc1ccc(CCN(C)CCCC(C#N)(c2ccc(OC)c(OC)c2)C(C)C)cc1OC` (configuration not stated) [VERAPAMIL], the “fold change (FC)” value (ADR5000 cell line) was 4.7.

With `Cc1cn(-c2cc(NC(=O)c3ccc(C)c(Nc4nccc(-c5cccnc5)n4)c3)cc(C(F)(F)F)c2)cn1` [NILOTINIB] the CC50 (HL-60) was 1.7 µM, the CC50 (U-937) was 2.3 µM and the CC50 [10] was 3.9 µM. It also gave a CC50 [11] of 5.6 µM, a CC50 (SH-SY5Y) of 4.2 µM and a CC50 (HEK293) of 5.9 µM.

With `COc1ccc(CCN(C)CCCOc2ccc(S(=O)(=O)c3c(C(C)C)cn4ccccc34)cc2)cc1OC` [FANTOFARONE] the IC50 (P388/ADR [12]) was 30 µM and the “Ratio IC50” value (P388/ADR [13]) was 4.5.

In the case of `CCCN(CCC)S(=O)(=O)c1ccc(C(=O)CC[C@H](N)C(=O)O)cc1`, the “fold change (FC)” value [14] is reported as 3, the “fold change (FC)” value [15] is reported as 3 and the “fold change (FC)” value [16] is reported as 3.

In the case of `CC(=O)O[C@@H]1C[C@H](O)[C@@]23CO[C@@H](O)[C@]1(C)[C@@H]2C[C@@H](O)[C@]1(C)[C@@H]3C(=O)[C@H](OC(C)=O)[C@@]2(C)[C@H](c3ccoc3)C[C@H]3O[C@]321` [TOOSENDANIN], the inhibition in vivo at 4 mg/kg (4T1) is reported as 90%.

`O=C(Nc1ccc(F)cc1)c1sccc1Nc1cccc2c1OCCO2` gave an EC50 [17] of 35 µM.

In the case of `COc1ccc(-c2cc(=O)c3c(OC)c(OC)c(OC)c(OC)c3o2)cc1OC` [NOBILETIN], the IC50 (A549/TR [18]) is reported as 9 µM, the IC50 (A2780/Taxol [19]) is reported as 9 µM and the “fold change (FC)” value (A2780/Taxol [20]) is reported as 15.92. For the same molecule, the “fold change (FC)” value (A549/TR [21]) was 15.92.

For `CS(=O)(=O)CCNCc1ccc(-c2ccc3ncnc(Nc4ccc(OCc5cccc(F)c5)c(Cl)c4)c3c2)o1` [LAPATINIB], the “fold change (FC)” value [22] was 20.7 and the “fold change (FC)” value [23] was 6.2.
